Test results as given in patent US20100285959A1, “HERBICIDAL MIXTURES” (priority 2006, published 2010).

Tests used:
[1] = test system: corn (ZEAMD); assay: Test 7 field trial, preemergence; type: in vivo, Zea mays ssp. indentata; conditions: hybrid Pioneer 36B10, corn (Zea mays ssp. indentata), in vivo, 62 days after application
Protocol: (§1) Plots were 7.6 m long by 3.0 m wide with rows spaced 76 cm apart. Seeds were spaced 15 cm apart within the rows. The field was managed using conventional tillage practices. […] Wild radish was evaluated 14 and 28 days after application. […] Results are the means of the three replicates.

[2] = test system: redroot pigweed (AMARE); assay: Test 7 field trial, preemergence; type: in vivo, Amaranthus retroflexus
Protocol: as §1

[3] = test system: jimsonweed (DATST); assay: Test 7 field trial, preemergence; type: in vivo, Datura stramonium
Protocol: as §1

[4] = test system: annual grasses (GGGAN); assay: Test 7 field trial, preemergence; type: in vivo, Gramineae
Protocol: as §1

[5] = test system: morningglory (IPOSS); assay: Test 7 field trial, preemergence; type: in vivo, Ipomoea L. spp.
Protocol: as §1

[6] = test system: Pennsylvania smartweed (POLPY); assay: Test 7 field trial, preemergence; type: in vivo, Polygonum pensylvanicum
Protocol: as §1

[7] = test system: wild radish (RAPRA); assay: Test 7 field trial, preemergence; type: in vivo, Raphanus raphanistrum
Protocol: as §1

[8] = test system: winter barley (HORVW); assay: Test 20 growth chamber, postemergence; type: in vivo, Hordeum vulgare; conditions: 25 DAA; 2,4-D or MCPA alone 250 g a.i./ha
Protocol: (§2) A test was conducted to evaluate the effects on winter barley (HORVW, Hordeum vulgare L.) and winter wheat (TRZAW, Triticum aestivum L.) of mixtures of Compound 2 with the commercial herbicides (2,4-dichlorophenoxy)acetic acid (2,4-D) and (4-chloro-2-methylphenoxy)acetic acid (MCPA), auxin mimics. […] Plants were treated postemergence at the 2-leaf growth stage, and each treatment was replicated a total of four times (three times in the loam/sand blend and one time in RediEarth). […] Plants were watered as needed. […] Results are the means of the four replicates.

[9] = test system: winter wheat (TRZAW); assay: Test 20 growth chamber, postemergence; type: in vivo, Triticum aestivum; conditions: 25 DAA; 2,4-D or MCPA alone 250 g a.i./ha
Protocol: as §2

[10] = test system: winter barley (HORVW); assay: Test 22 growth chamber, postemergence; type: in vivo, Hordeum vulgare; conditions: 25 DAA; 2,4-D or MCPA alone 250 g a.i./ha
Protocol: (§3) A test was conducted to evaluate the effects on winter barley (HORVW, Hordeum vulgare L.), winter wheat (TRZAW, Triticum aestivum L.), and several weed species of mixtures of Compound 2 with the commercial herbicides (2,4-dichlorophenoxy)acetic acid (2,4-D) and (4-chloro-2-methylphenoxy)acetic acid (MCPA), auxin mimics. […] Plants were treated postemergence at the 2-4 leaf growth stage, except KCHSC, SASKR and STEME which were in the 4-8 leaf growth stage. Each treatment was replicated one time. […] Plants were watered as needed. […] Results are from single replicates.

[11] = test system: winter wheat (TRZAW); assay: Test 22 growth chamber, postemergence; type: in vivo, Triticum aestivum; conditions: 25 DAA; 2,4-D or MCPA alone 250 g a.i./ha
Protocol: as §3

[12] = test system: redroot pigweed (AMARE); assay: Test 22 growth chamber, postemergence; type: in vivo, Amaranthus retroflexus; conditions: 25 DAA; 2,4-D or MCPA alone 250 g a.i./ha
Protocol: as §3

[13] = test system: common lambsquarters (CHEAL); assay: Test 22 growth chamber, postemergence; type: in vivo, Chenopodium album; conditions: 25 DAA; 2,4-D or MCPA alone 250 g a.i./ha
Protocol: as §3

[14] = test system: galium (GALAP); assay: Test 22 growth chamber, postemergence; type: in vivo, Galium aparine; conditions: 25 DAA; 2,4-D or MCPA alone 250 g a.i./ha
Protocol: as §3

[15] = test system: kochia (KCHSC); assay: Test 22 growth chamber, postemergence; type: in vivo, Kochia scoparia; conditions: 25 DAA; 2,4-D or MCPA alone 250 g a.i./ha
Protocol: as §3

[16] = test system: wild buckwheat (POLCO); assay: Test 22 growth chamber, postemergence; type: in vivo, Polygonum convolvulus; conditions: 25 DAA; 2,4-D or MCPA alone 250 g a.i./ha
Protocol: as §3

[17] = test system: Russian thistle (SASKR); assay: Test 22 growth chamber, postemergence; type: in vivo, Salsola kali; conditions: 25 DAA; 2,4-D or MCPA alone 250 g a.i./ha
Protocol: as §3

[18] = test system: wild mustard (SINAR); assay: Test 22 growth chamber, postemergence; type: in vivo, Sinapis arvensis; conditions: 25 DAA; 2,4-D or MCPA alone 250 g a.i./ha
Protocol: as §3

[19] = test system: common chickweed (STEME); assay: Test 22 growth chamber, postemergence; type: in vivo, Stellaria media; conditions: 25 DAA; 2,4-D or MCPA alone 250 g a.i./ha
Protocol: as §3

[20] = test system: winter barley (HORVW); assay: Test 23 growth chamber, postemergence; type: in vivo, Hordeum vulgare; conditions: 21 DAA; 2,4-D or MCPA alone 250 g a.i./ha
Protocol: (§4) A test was conducted to evaluate the effects on winter barley (HORVW, Hordeum vulgare L.), winter wheat (TRZAW, Triticum aestivum L.), and several weed species of mixtures of Compound 2 with the commercial herbicides (2,4-dichlorophenoxy)acetic acid (2,4-D) and (4-chloro-2-methylphenoxy)acetic acid (MCPA), auxin mimics. […] Plants were treated postemergence at the 2-4 leaf growth stage, and each treatment was replicated three times. […] Plants were watered as needed. […] Results are means of the three replicates.

[21] = test system: winter wheat (TRZAW); assay: Test 23 growth chamber, postemergence; type: in vivo, Triticum aestivum; conditions: 21 DAA; 2,4-D or MCPA alone 250 g a.i./ha
Protocol: as §4

[22] = test system: redroot pigweed (AMARE); assay: Test 23 growth chamber, postemergence; type: in vivo, Amaranthus retroflexus; conditions: 21 DAA; 2,4-D or MCPA alone 250 g a.i./ha
Protocol: as §4

[23] = test system: common lambsquarters (CHEAL); assay: Test 23 growth chamber, postemergence; type: in vivo, Chenopodium album; conditions: 21 DAA; 2,4-D or MCPA alone 250 g a.i./ha
Protocol: as §4

[24] = test system: galium (GALAP); assay: Test 23 growth chamber, postemergence; type: in vivo, Galium aparine; conditions: 21 DAA; 2,4-D or MCPA alone 250 g a.i./ha
Protocol: as §4

[25] = test system: kochia (KCHSC); assay: Test 23 growth chamber, postemergence; type: in vivo, Kochia scoparia; conditions: 21 DAA; 2,4-D or MCPA alone 250 g a.i./ha
Protocol: as §4

[26] = test system: wild chamomile (MATCH); assay: Test 23 growth chamber, postemergence; type: in vivo, Matricaria chamomilla; conditions: 21 DAA; 2,4-D or MCPA alone 250 g a.i./ha
Protocol: as §4

[27] = test system: field poppy (PAPRH); assay: Test 23 growth chamber, postemergence; type: in vivo, Papaver rhoeas; conditions: 21 DAA; 2,4-D or MCPA alone 250 g a.i./ha
Protocol: as §4

[28] = test system: wild buckwheat (POLCO); assay: Test 23 growth chamber, postemergence; type: in vivo, Polygonum convolvulus; conditions: 21 DAA; 2,4-D or MCPA alone 250 g a.i./ha
Protocol: as §4

[29] = test system: Russian thistle (SASKR); assay: Test 23 growth chamber, postemergence; type: in vivo, Salsola kali; conditions: 21 DAA; 2,4-D or MCPA alone 250 g a.i./ha
Protocol: as §4

[30] = test system: wild mustard (SINAR); assay: Test 23 growth chamber, postemergence; type: in vivo, Sinapis arvensis; conditions: 21 DAA; 2,4-D or MCPA alone 250 g a.i./ha
Protocol: as §4

[31] = test system: common chickweed (STEME); assay: Test 23 growth chamber, postemergence; type: in vivo, Stellaria media; conditions: 21 DAA; 2,4-D or MCPA alone 250 g a.i./ha
Protocol: as §4

[32] = test system: field violet (VIOAR); assay: Test 23 growth chamber, postemergence; type: in vivo, Viola arvensis; conditions: 21 DAA; 2,4-D or MCPA alone 250 g a.i./ha
Protocol: as §4

## CCOC(=O)c1nc(C2CC2)nc(N)c1Br [Compound 6, ethyl 6-amino-5-bromo-2-cyclopropyl-4-pyrimidinecarboxylate]
[1]
  ZEAMD Obs: 0%
[2]; 14 DAA, 125 g a.i./ha
  AMARE Obs: 87%
[2]; 14 DAA, 250 g a.i./ha
  AMARE Obs: 98%
[2]; 14 DAA, 500 g a.i./ha
  AMARE Obs: 98%
[2]; 28 DAA, 125 g a.i./ha
  AMARE Obs: 82%
[2]; 28 DAA, 250 g a.i./ha
  AMARE Obs: 97%
[2]; 28 DAA, 500 g a.i./ha
  AMARE Obs: 98%
[2]; 62 DAA, 125 g a.i./ha
  AMARE Obs: 80%
[2]; 62 DAA, 250 g a.i./ha
  AMARE Obs: 70%
[2]; 62 DAA, 500 g a.i./ha
  AMARE Obs: 100%
[3]; 14 DAA, 125 g a.i./ha
  DATST Obs: 87%
[3]; 14 DAA, 250 g a.i./ha
  DATST Obs: 100%
[3]; 14 DAA, 500 g a.i./ha
  DATST Obs: 95%
[3]; 28 DAA, 125 g a.i./ha
  DATST Obs: 90%
[3]; 28 DAA, 250 g a.i./ha
  DATST Obs: 100%
[3]; 28 DAA, 500 g a.i./ha
  DATST Obs: 100%
[3]; 62 DAA, 125 g a.i./ha
  DATST Obs: 75%
[3]; 62 DAA, 250 g a.i./ha
  DATST Obs: 100%
[3]; 62 DAA, 500 g a.i./ha
  DATST Obs: 90%
[4]; 14 DAA, 125 g a.i./ha
  GGGAN Obs: 7%
[4]; 14 DAA, 250 g a.i./ha
  GGGAN Obs: 53%
[4]; 14 DAA, 500 g a.i./ha
  GGGAN Obs: 63%
[4]; 28 DAA, 125 g a.i./ha
  GGGAN Obs: 2%
[4]; 28 DAA, 250 g a.i./ha
  GGGAN Obs: 35%
[4]; 28 DAA, 500 g a.i./ha
  GGGAN Obs: 52%
[4]; 62 DAA, 125 g a.i./ha
  GGGAN Obs: 90%
[4]; 62 DAA, 250 g a.i./ha
  GGGAN Obs: 0%
[4]; 62 DAA, 500 g a.i./ha
  GGGAN Obs: 0%
[5]; 14 DAA, 125 g a.i./ha
  IPOSS Obs: 93%
[5]; 14 DAA, 250 g a.i./ha
  IPOSS Obs: 100%
[5]; 14 DAA, 500 g a.i./ha
  IPOSS Obs: 100%
[5]; 28 DAA, 125 g a.i./ha
  IPOSS Obs: 93%
[5]; 28 DAA, 250 g a.i./ha
  IPOSS Obs: 100%
[5]; 28 DAA, 500 g a.i./ha
  IPOSS Obs: 100%
[5]; 62 DAA, 125 g a.i./ha
  IPOSS Obs: 100%
[5]; 62 DAA, 250 g a.i./ha
  IPOSS Obs: 100%
[5]; 62 DAA, 500 g a.i./ha
  IPOSS Obs: 100%
[6]; 14 DAA, 125 g a.i./ha
  POLPY Obs: 40%
[6]; 14 DAA, 250 g a.i./ha
  POLPY Obs: 83%
[6]; 14 DAA, 500 g a.i./ha
  POLPY Obs: 93%
[6]; 28 DAA, 125 g a.i./ha
  POLPY Obs: 45%
[6]; 28 DAA, 250 g a.i./ha
  POLPY Obs: 80%
[6]; 28 DAA, 500 g a.i./ha
  POLPY Obs: 88%
[6]; 62 DAA, 125 g a.i./ha
  POLPY Obs: 75%
[6]; 62 DAA, 250 g a.i./ha
  POLPY Obs: 55%
[6]; 62 DAA, 500 g a.i./ha
  POLPY Obs: 100%
[7]; 14 DAA, 125 g a.i./ha
  RAPRA Obs: 25%
[7]; 14 DAA, 250 g a.i./ha
  RAPRA Obs: 40%
[7]; 14 DAA, 500 g a.i./ha
  RAPRA Obs: 43%
[7]; 28 DAA, 125 g a.i./ha
  RAPRA Obs: 35%
[7]; 28 DAA, 250 g a.i./ha
  RAPRA Obs: 30%
[7]; 28 DAA, 500 g a.i./ha
  RAPRA Obs: 30%

## Cc1cc(Cl)ccc1OCC(=O)O [MCPA]
[8]
  Postemergence HORVW Obs: 33
[9]
  Postemergence TRZAW Obs: 18
[10]
  Postemergence HORVW Obs: 25
[11]
  Postemergence TRZAW Obs: 10
[12]
  Postemergence AMARE Obs: 65
[13]
  Postemergence CHEAL Obs: 65
[14]
  Postemergence GALAP Obs: 50
[15]
  Postemergence KCHSC Obs: 55
[16]
  Postemergence POLCO Obs: 40
[17]
  Postemergence SASKR Obs: 45
[18]
  Postemergence SINAR Obs: 75
[19]
  Postemergence STEME Obs: 50
[20]
  Postemergence HORVW Obs: 35
[21]
  Postemergence TRZAW Obs: 32
[22]
  Postemergence AMARE Obs: 63
[23]
  Postemergence CHEAL Obs: 70
[24]
  Postemergence GALAP Obs: 43
[25]
  Postemergence KCHSC Obs: 67
[26]
  Postemergence MATCH Obs: 53
[27]
  Postemergence PAPRH Obs: 57
[28]
  Postemergence POLCO Obs: 52
[29]
  Postemergence SASKR Obs: 43
[30]
  Postemergence SINAR Obs: 65
[31]
  Postemergence STEME Obs: 55
[32]
  Postemergence VIOAR Obs: 60
